Target: T1, hOX2R (Homo sapiens, UniProt O43614)
T1 construct: expressed in transfected cells; host or cells: CHO cells (G418 selection)
T1 sequence (O43614 1-444): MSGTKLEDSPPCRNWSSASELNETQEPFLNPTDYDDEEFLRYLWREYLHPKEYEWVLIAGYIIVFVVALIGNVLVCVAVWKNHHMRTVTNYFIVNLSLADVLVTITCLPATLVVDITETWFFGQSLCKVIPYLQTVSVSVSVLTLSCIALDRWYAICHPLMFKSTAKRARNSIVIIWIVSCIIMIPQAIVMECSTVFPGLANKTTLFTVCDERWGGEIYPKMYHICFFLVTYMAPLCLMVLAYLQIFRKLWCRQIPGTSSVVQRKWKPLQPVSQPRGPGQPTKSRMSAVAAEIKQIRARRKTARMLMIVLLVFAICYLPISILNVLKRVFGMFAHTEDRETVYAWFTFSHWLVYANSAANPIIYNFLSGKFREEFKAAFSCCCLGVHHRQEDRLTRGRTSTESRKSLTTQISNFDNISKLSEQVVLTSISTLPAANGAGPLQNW
Assay: hOX2R IPone assay (orexin receptor agonism)
Type: cell-based
Conditions: IPone readout; for hOX2R_Ipone max %act: maximal activation; for EC50: orexin receptor agonist, read-out: hOX2R_IPone EC50

## CCN1C(=O)N[C@@H](CCC(F)(F)F)CCCCCOc2cc(cc3ccnn23)-c2nc(cnc2OC)C1C (single isomer, unassigned) [Example 80B]
  hOX2R_Ipone max %act: 99.8%
  EC50: 0.0029 µM

## CCN1C(=O)N[C@@H](CCC(F)(F)F)CCCCCOc2nc(cc3ccnn23)-c2cc(ncc2OC)C1C (single isomer, unassigned) [Example 88A]
  hOX2R_Ipone max %act: 100.2%
  EC50: 0.0678 µM

## CCN1C(=O)N[C@@H](CCC(F)(F)F)CCCCCOc2nc(cc3ccnn23)-c2cc(ncc2OC)C1C (single isomer, unassigned) [Example 88B]
  hOX2R_Ipone max %act: 102.3%
  EC50: 0.0007 µM

## CCN1C(=O)N[C@@H](CCC(F)(F)F)CCCCCOc2nc(cn3ccnc23)-c2cc(c(C)cn2)C1C (single isomer, unassigned) [Example 92A]
  hOX2R_Ipone max %act: 67.1%
  EC50: 10.1 µM

## CCN1C(=O)N[C@@H](CCC(F)(F)F)CCCCCOc2nc(cn3ccnc23)-c2cc(c(C)cn2)C1C (single isomer, unassigned) [Example 92B]
  hOX2R_Ipone max %act: 99.1%
  EC50: 0.0242 µM

## CCN1C(=O)N[C@@H](CCC(F)(F)F)CCCCCOc2nc(cn3ccnc23)C2=NC=C(S2)C1C (single isomer, unassigned) [Example 94A]
  hOX2R_Ipone max %act: 97.9%
  EC50: 0.167 µM

## CCN1C(=O)N[C@@H](CCC(F)(F)F)CCCCCOc2nc(cn3ccnc23)C2=NC=C(S2)C1C (single isomer, unassigned) [Example 94B]
  hOX2R_Ipone max %act: 100.3%
  EC50: 0.0544 µM

## CCN1C(=O)N[C@@H](CCC(F)(F)F)CCCCCOc2cc(cn3ccnc23)-c2cc(ncn2)C1C (single isomer, unassigned) [Example 96A]
  hOX2R_Ipone max %act: 100.3%
  EC50: 0.0119 µM

## CCN1C(=O)N[C@@H](CCC(F)(F)F)CCCCCOc2cc(cn3ccnc23)-c2cc(ncn2)C1C (single isomer, unassigned) [Example 96B]
  hOX2R_Ipone max %act: 100.5%
  EC50: 0.0029 µM

## CCN1C(=O)N[C@@H](CCC(F)(F)F)CCCCCOc2nc(cn3ccnc23)C2=NC=C(O2)C1C (single isomer, unassigned) [Example 104A]
  hOX2R_Ipone max %act: 60.9%
  EC50: 4.91 µM

## CCN1C(=O)N[C@@H](CCC(F)(F)F)CCCCCOc2nc(cn3ccnc23)C2=NC=C(O2)C1C (single isomer, unassigned) [Example 104B]
  hOX2R_Ipone max %act: 101.1%
  EC50: 0.0641 µM

## CCN1C(=O)N[C@@H](CCC(F)(F)F)CCCCCOc2nc(cn3ccnc23)-c2nc(co2)C1C (single isomer, unassigned) [Example 105A]
  hOX2R_Ipone max %act: 73.0%
  EC50: 1.36 µM

## CCN1C(=O)N[C@@H](CCC(F)(F)F)CCCCCOc2nc(cn3ccnc23)-c2nc(co2)C1C (single isomer, unassigned) [Example 105B]
  hOX2R_Ipone max %act: 100%
  EC50: 0.0616 µM

## CCN1C(=O)NC(CCC(F)(F)F)CCC(F)(F)CCOc2nc(cn3ccnc23)-c2cc(ncc2OC)[C@H]1C (single isomer, unassigned) [Example 121A]
  hOX2R_Ipone max %act: 100.4%
  EC50: 0.0098 µM

## CCN1C(=O)NC(CCC(F)(F)F)CCC(F)(F)CCOc2nc(cn3ccnc23)-c2cc(ncc2OC)[C@H]1C (single isomer, unassigned) [Example 121B]
  hOX2R_Ipone max %act: 100.7%
  EC50: 0.0005 µM

## CCN1C(=O)NC(C(O)CC(F)(F)F)CCCCCOc2nc(cn3ncnc23)-c2cc(ncc2OC)C1C (single isomer, unassigned) [Example 133]
  hOX2R_Ipone max %act: 102.1%
  EC50: 0.00475 µM

## CCN1C(=O)N[C@@H](CCC(F)(F)F)CCC(O)CCOc2nc(cn3ccnc23)-c2cc(cnc2C)[C@H]1C (single isomer, unassigned) [Example 137]
  hOX2R_Ipone max %act: 100.7%
  EC50: 0.00466 µM

## CCN1C(=O)N[C@@H](CCC(F)(F)F)COCCCOc2nc(cn3ncnc23)-c2ccnc(c2F)[C@H]1C (single isomer, unassigned) [Example 175]
  hOX2R_Ipone max %act: 93.8%
  EC50: 0.00906 µM

## CCN1C(=O)NC2CN(CCCOc3nc(cn4ccnc34)-c3cc(ncc3OC)[C@H]1C)CC2C(F)(F)F (single isomer, unassigned) [Example 212]
  hOX2R_Ipone max %act: 99.48%
  EC50: 0.00279 µM

## CCN1C(=O)NC2CN(CCCCOc3nc(cn4ccnc34)-c3cc(ncc3OC)[C@H]1C)CC2C(F)(F)F (single isomer, unassigned) [Example 214]
  hOX2R_Ipone max %act: 102.9%
  EC50: 0.00343 µM

## CCN1C(=O)NC(C#N)CCCCCOc2nc(cn3ccnc23)-c2cc(ncc2OC)[C@H]1C (single isomer, unassigned) [Example 224]
  hOX2R_Ipone max %act: 99.26%
  EC50: 0.0712 µM

## CCN1C(=O)N[C@@H](CCC(F)(F)F)CCCCOc2nc(cn3ccnc23)-c2cc(ncc2OC)C1C (stereo in doubt) [Example 40, (12S,16R)-13-ethyl-8-methoxy-12-methyl-16-(3,3,3-trifluoropropyl)-12,13,15,16,17,18,19,20-octahydro-14H-6,22-(azeno)-11,7-(metheno)imidazo[2,1-c][1,4,10,13,15]oxatetra-azacycloicosin-14-one]
  hOX2R_Ipone max %act: 101.2%
  EC50: 0.0012 µM

## CCN1C(=O)NCCC2CCC(C2)Oc2nc(cn3ccnc23)-c2cccc(c2)C1C [Example 1B, (10R,E)-9-ethyl-10-methyl-3-oxa-7,9-diaza-2(6,8)-imidazo[1,2-a]pyrazina-1(1,3)-benzena-4(1,3)-cyclopentanacyclodecaphan-8-one]
  hOX2R_Ipone max %act: 99.5%
  EC50: 0.126 µM

## CCN1C(=O)NCCOCCOc2nc(cn3ccnc23)-c2cccc(c2)[C@H]1C [Example 2, (12R)-13-ethyl-12-methyl-12,13,16,17,19,20-hexahydro-6,22-(azeno)-11,7-(metheno)imidazo[1,2-o][1,18,4,6,15]dioxatriaza-cycloicosin-14(15H)-one]
  hOX2R_Ipone max %act: 64.8%
  EC50: 0.813 µM

## CCN1C(=O)NCCN(C(C)C)CCOc2nc(cn3ccnc23)-c2cccc(c2)[C@H]1C [Example 3, (12R)-13-ethyl-12-methyl-18-(propan-2-yl)-12,13,15,16,17,18,19,20-octahydro-14H-6,22-(azeno)-11,7-(metheno)imidazo[1,2-r][1,4,7,9,18]oxatetraaza-cycloicosin-14-one]
  hOX2R_Ipone max %act: 88.8%
  EC50: 2.5 µM

## CCN1C(=O)NCCCOCCOc2nc(cn3ccnc23)-c2cc(ncc2OC)[C@H]1C [Example 7, (12R)-13-ethyl-8-methoxy-12-methyl-12,13,15,16,17,18,20,21-octahydro-14H-6,23-(azeno)-11,7-(metheno)imidazo[2,1-f][1,4,7,13,16,18]dioxatetra-azacyclohenicosin-14-one]
  hOX2R_Ipone max %act: 100.6%
  EC50: 0.0046 µM

## CCN1C(=O)NCCOCCCOc2nc(cn3ccnc23)-c2cc(ncc2OC)[C@H]1C [Example 8, (12R)-13-ethyl-8-methoxy-12-methyl-12,13,16,17,20,21-hexahydro-19H-6,23-(azeno)-11,7-(metheno)imidazo[1,2-o][1,18,4,6,9,15]dioxatetra-azacyclohenicosin-14(15H)-one]
  hOX2R_Ipone max %act: 100.2%
  EC50: 0.0136 µM

## CCN1C(=O)NCCNCCCOc2cn3ccnc3c(n2)-c2cccc(c2)[C@H]1C [Example 10, (R,E)-4-ethyl-3-methyl-13-oxa-4,6,9-triaza-1(6,8)-imidazo[1,2-a]pyrazina-2(1,3)-benzenacyclotridecaphan-5-one]
  hOX2R_Ipone max %act: 97.61%
  EC50: 0.95 µM

## CCN1C(=O)NCCCNCCOc2nc(cn3ccnc23)-c2cccc(c2)[C@H]1C [Example 11]
  hOX2R_Ipone max %act: 75.54%
  EC50: 0.778 µM

## CCN1C(=O)NCCCCCCOc2nc(cn3ccnc23)-c2cccc(c2)[C@H]1C [Example 12, (12R)-13-ethyl-12-methyl-12,13,16,17,18,19, 20,21-octahydro-6,23-(azeno)-11,7-(metheno) imidazo[2,1-c][1,4,13,15]oxa-triazacyclohenicosin-14(15H)-one]
  hOX2R_Ipone max %act: 99.76%
  EC50: 0.0203 µM

## CCN1C(=O)NCCCC(C)(C)COc2nc(cn3ccnc23)-c2cccc(c2)[C@H]1C [Example 13, (12R)-13-ethyl-12,19,19-tri-methyl-12,13,15, 16,17,18,19,20-octahydro-14H-6,22-(azeno)-11,7-(metheno) imidazo[2,1-c][1,4,13,15]oxa-triazacycloicosin-14-one]
  hOX2R_Ipone max %act: 98.2%
  EC50: 0.634 µM

## CCN1C(=O)NCCCOCCOc2nc(cn3ccnc23)-c2cccc(c2)[C@H]1C [Example 14, (12R)-13-ethyl-12-methyl-12,13,15,16,17,18, 20,21-octahydro-14H-6,23-(azeno)-11,7-(metheno)imidazo [2,1-f][1,4,7,16, 18]dioxatriaza-cyclohenicosin-14-one]
  hOX2R_Ipone max %act: 101%
  EC50: 0.0097 µM

## CCN1CCCOc2nc(cn3ccnc23)-c2cccc(c2)[C@@H](C)N(CC)C(=O)NCC1 [Example 15, (12R)-13,18-diethyl-12-methyl-12,13,16, 17,18,19,20,21-octahydro-6,23-(azeno)-11,7-(metheno) imidazo[2,1-c][1,4,13,15,18]oxa-tetraazacyclo-henicosin-14(15H)-one]
  hOX2R_Ipone max %act: 96.2%
  EC50: 1.18 µM

## CCN1C(=O)NCCOCCCOc2nc(cn3ccnc23)-c2cccc(c2)[C@H]1C [Example 17, (12R)-13-ethyl-12-methyl-12,13, 16,17,20,21-hexahydro-19H-6,23-(azeno)-11,7-(metheno) imidazo[1,2-o][1, 18,4,6,15]dioxa-triazacyclohenicosin-14(15H)-one]
  hOX2R_Ipone max %act: 99.6%
  EC50: 0.0194 µM

— patent publication US12686690B2, “Macrocyclic urea orexin receptor agonists” (Merck Sharp & Dohme LLC, priority 2020, dated 2026)
